Measured values: patent US8802597B2, “Herbicidal pyrimidines” (E I du Pont de Nemours and Company, priority 2003, dated 2014)
Where two headings read alike, the source gives them in different places.

Key:
Assay type in all cases: in vivo
wild oat (Avena fatua) = experiment: Test B postemergence
Outline: (§1)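 Visual rating, 0 (no effect) to 100 (complete control) versus controls, taken 13–15 days after treatment in greenhouse. Compounds formulated in non-phytotoxic solvent plus surfactant; pre: sprayed after seeding; post: plants at 1- to 4-leaf stage, 2–18 cm.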

[1] = system: blackgrass (Alopecurus myosuroides); experiment: Test B postemergence
Outline: as §1

[2] = system: crabgrass (Digitaria sanguinalis); experiment: Test B pre/postemergence; details: for pest or weed control at 500 g/ha: 500 g ai/ha
Outline: as §1

[3] = system: wheat (Triticum aestivum); experiment: Test B pre/postemergence; details: for plant injury at 500 g/ha: 500 g ai/ha
Outline: as §1

corn (Zea mays) = experiment: Test B pre/postemergence
Outline: as §1

[4] = system: morningglory (Ipomoea coccinea); experiment: Test B pre/postemergence; details: for pest or weed control at 500 g/ha: 500 g ai/ha
Outline: as §1

[5] = system: cocklebur (Xanthium strumarium); experiment: Test B pre/postemergence; details: Xanthium strumarium; for pest or weed control at 125 g/ha: 125 g ai/ha; for pest or weed control at 500 g/ha: 500 g ai/ha
Outline: as §1

[6] = system: barnyardgrass (Echinochloa crus-galli); experiment: Test B pre/postemergence; details: for pest or weed control at 500 g/ha: 500 g ai/ha
Outline: as §1

[7] = system: giant foxtail (Setaria faberii); experiment: Test B pre/postemergence; details: for pest or weed control at 500 g/ha: Setaria faberi, 500 g ai/ha
Outline: as §1

[8] = system: lambsquarters (Chenopodium album); experiment: Test B pre/postemergence; details: Chenopodium album; for pest or weed control at 125 g/ha: 125 g ai/ha; for pest or weed control at 500 g/ha: 500 g ai/ha
Outline: as §1

[9] = system: pigweed (Amaranthus retroflexus); experiment: Test B pre/postemergence; details: Amaranthus retroflexus; for pest or weed control at 125 g/ha: 125 g ai/ha; for pest or weed control at 500 g/ha: 500 g ai/ha
Outline: as §1

[10] = system: Surinam grass (Brachiaria decumbens); experiment: Test B pre/postemergence; details: Urochloa decumbens; for pest or weed control at 125 g/ha: 125 g ai/ha; for pest or weed control at 500 g/ha: 500 g ai/ha
Outline: as §1

[11] = system: velvetleaf (Abutilon theophrasti); experiment: Test B pre/postemergence; details: Abutilon theophrasti; for pest or weed control at 125 g/ha: 125 g ai/ha; for pest or weed control at 500 g/ha: 500 g ai/ha
Outline: as §1

rice (Oryza sativa) = experiment: Test B flooded paddy test; details: Oryza sativa, Flood, 1000 g ai/ha; scale 0 to 100; read-out: Plant response rating, Rice
Outline: (§2)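 Rice, umbrella sedge, duck salad and barnyardgrass grown to 2-leaf stage under flooded paddy conditions and treated with formulated test chemicals. Kept in greenhouse 13–15 days, then visually rated against untreated controls on a 0–100 scale (0 no effect, 100 complete control).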

[12] = system: duck salad (Heteranthera limosa); experiment: Test B flooded paddy test; details: Heteranthera limosa, Flood, 1000 g ai/ha; scale 0 to 100; read-out: Plant response rating, Ducksalad
Outline: as §2

[13] = system: umbrella sedge (Cyperus difformis); experiment: Test B flooded paddy test; details: Cyperus difformis, Flood, 1000 g ai/ha; scale 0 to 100; read-out: Plant response rating, Sedge, Umbrella
Outline: as §2

[14] = system: barnyardgrass (Echinochloa crus-galli); experiment: Test B flooded paddy test; details: Echinochloa crus-galli, Flood, 1000 g ai/ha; scale 0 (no effect) to 100 (complete control); read-out: Plant response rating, Barnyardgrass
Outline: as §2

[15] = 125 g ai/ha, scale 0 to 100 (0 no effect, 100 complete control)
[16] = Postemergence, 125 g ai/ha, scale 0 to 100 (0 no effect, 100 complete control)
[17] = Preemergence, 125 g ai/ha, scale 0 to 100 (0 no effect, 100 complete control)

With `Nc1nc(C2CC2)nc(C(=O)O)c1Br` [Compound 8] the “Oat, Wild plant response rating” value (wild oat (Avena fatua); [15]) was 0, the pest or weed control at 500 g/ha (wild oat (Avena fatua); Avena fatua, post-emergence, 500 g ai/ha, scale 0 to 100, read-out: Plant response rating, Oat, Wild) was 0% and the “Blackgrass plant response rating” value [1, 15] was 0. It also gave a pest or weed control at 500 g/ha ([1]; Alopecurus myosuroides, post-emergence, 500 g ai/ha, scale 0 to 100, read-out: Plant response rating, Blackgrass) of 0%, a pest or weed control at 500 g/ha ([2]; Digitaria sanguinalis, post-emergence, Postemergence, scale 0 to 100, read-out: Plant response rating, Crabgrass) of 90% and a pest or weed control at 125 g/ha ([2]; Digitaria sanguinalis, pre-emergence, Preemergence, 125 g ai/ha, scale 0 to 100 (0 no effect, 100 complete control), read-out: Plant response rating, Crabgrass) of 80%. For the same compound, the pest or weed control at 500 g/ha ([2]; Digitaria sanguinalis, pre-emergence, Preemergence, scale 0 to 100 (0 no effect, 100 complete control), read-out: Crabgrass plant response rating) was 90%, the “Crabgrass plant response rating” value [2, 16] was 80 and the “Wheat plant response rating” value [3, 16] was 0. For the same compound, the plant injury at 500 g/ha ([3]; Triticum aestivum, post-emergence, Postemergence, scale 0 to 100, read-out: Plant response rating, Wheat) was 0%, the plant injury at 125 g/ha ([3]; Triticum aestivum, pre-emergence, Preemergence, 125 g ai/ha, scale 0 to 100 (0 no effect, 100 complete control), read-out: Plant response rating, Wheat) was 60% and the plant injury at 500 g/ha ([3]; Triticum aestivum, pre-emergence, Preemergence, scale 0 to 100 (0 no effect, 100 complete control), read-out: Wheat plant response rating) was 80%. For the same compound, the “Corn plant response rating” value (corn (Zea mays); [16]) was 70, the “Plant response rating, Corn” value (corn (Zea mays); [17]) was 90 and the Corn plant response rating (crop injury, 0 = no effect, 100 = complete kill) at 500 g/ha (corn (Zea mays); Zea mays, post-emergence, Postemergence, 500 g ai/ha, scale 0 to 100) was 90%. For the same compound, the plant injury at 500 g/ha (corn (Zea mays); Zea mays, pre-emergence, Preemergence, 500 g ai/ha, scale 0 to 100 (0 no effect, 100 complete control), read-out: Corn plant response rating) was 90%, the pest or weed control at 125 g/ha ([4]; Ipomoea, post-emergence, Postemergence, 125 g ai/ha, scale 0 to 100 (0 no effect, 100 complete control), read-out: Morningglory plant response rating) was 100% and the pest or weed control at 500 g/ha ([4]; Ipomoea, post-emergence, Postemergence, scale 0 to 100, read-out: Plant response rating, Morningglory) was 100%. For the same compound, the pest or weed control at 500 g/ha ([4]; Ipomoea, pre-emergence, Preemergence, scale 0 to 100 (0 no effect, 100 complete control), read-out: Morningglory plant response rating) was 100%, the “Plant response rating, Morningglory” value [4, 17] was 100 and the pest or weed control at 125 g/ha ([5]; post-emergence, Postemergence, scale 0 to 100 (0 no effect, 100 complete control), read-out: Cocklebur plant response rating) was 100%. The pest or weed control at 500 g/ha ([5]; post-emergence, Postemergence, scale 0 to 100, read-out: Plant response rating, Cocklebur) was 100%, the pest or weed control at 125 g/ha ([5]; pre-emergence, Preemergence, scale 0 to 100 (0 no effect, 100 complete control), read-out: Plant response rating, Cocklebur) was 90% and the pest or weed control at 500 g/ha ([5]; pre-emergence, Preemergence, scale 0 to 100 (0 no effect, 100 complete control), read-out: Cocklebur plant response rating) was 100%. It also gave a pest or weed control at 125 g/ha ([6]; Echinochloa crus-galli, post-emergence, Postemergence, 125 g ai/ha, scale 0 to 100 (0 no effect, 100 complete control), read-out: Barnyardgrass plant response rating) of 90%, a pest or weed control at 500 g/ha ([6]; Echinochloa crus-galli, post-emergence, Postemergence, scale 0 to 100, read-out: Plant response rating, Barnyardgrass) of 90% and a pest or weed control at 500 g/ha ([6]; Echinochloa crus-galli, pre-emergence, Preemergence, scale 0 to 100 (0 no effect, 100 complete control), read-out: Barnyardgrass plant response rating) of 90%. The “Plant response rating, Barnyardgrass” value [6, 17] was 70, the “Foxtail, Giant plant response rating” value [7, 16] was 80 and the “Plant response rating, Foxtail, Giant” value [7, 17] was 50. It also gave a pest or weed control at 500 g/ha ([7]; post-emergence, Postemergence, scale 0 to 100, read-out: Plant response rating, Foxtail, Giant) of 90%, a pest or weed control at 500 g/ha ([7]; pre-emergence, Preemergence, scale 0 to 100 (0 no effect, 100 complete control), read-out: Foxtail, Giant plant response rating) of 90% and a pest or weed control at 125 g/ha ([8]; post-emergence, Postemergence, scale 0 to 100 (0 no effect, 100 complete control), read-out: Lambsquarters plant response rating) of 100%. The pest or weed control at 500 g/ha ([8]; post-emergence, Postemergence, scale 0 to 100, read-out: Plant response rating, Lambsquarters) was 100%, the pest or weed control at 125 g/ha ([8]; pre-emergence, Preemergence, scale 0 to 100 (0 no effect, 100 complete control), read-out: Plant response rating, Lambsquarters) was 90% and the pest or weed control at 500 g/ha ([8]; pre-emergence, Preemergence, scale 0 to 100 (0 no effect, 100 complete control), read-out: Lambsquarters plant response rating) was 100%. For the same compound, the pest or weed control at 125 g/ha ([9]; post-emergence, Postemergence, scale 0 to 100 (0 no effect, 100 complete control), read-out: Pigweed plant response rating) was 100%, the pest or weed control at 500 g/ha ([9]; post-emergence, Postemergence, scale 0 to 100, read-out: Plant response rating, Pigweed) was 100% and the pest or weed control at 125 g/ha ([9]; pre-emergence, Preemergence, scale 0 to 100 (0 no effect, 100 complete control), read-out: Plant response rating, Pigweed) was 100%. For the same compound, the pest or weed control at 500 g/ha ([9]; pre-emergence, Preemergence, scale 0 to 100 (0 no effect, 100 complete control), read-out: Pigweed plant response rating) was 100%, the pest or weed control at 125 g/ha ([10]; post-emergence, Postemergence, scale 0 to 100 (0 no effect, 100 complete control), read-out: Surinam Grass plant response rating) was 80% and the pest or weed control at 500 g/ha ([10]; post-emergence, Postemergence, scale 0 to 100, read-out: Plant response rating, Surinam Grass) was 90%. For the same compound, the pest or weed control at 125 g/ha ([10]; pre-emergence, Preemergence, scale 0 to 100 (0 no effect, 100 complete control), read-out: Plant response rating, Surinam Grass) was 60%, the pest or weed control at 500 g/ha ([10]; pre-emergence, Preemergence, scale 0 to 100 (0 no effect, 100 complete control), read-out: Surinam Grass plant response rating) was 90% and the pest or weed control at 125 g/ha ([11]; post-emergence, Postemergence, scale 0 to 100 (0 no effect, 100 complete control), read-out: Velvetleaf plant response rating) was 80%. It also gave a pest or weed control at 500 g/ha ([11]; post-emergence, Postemergence, scale 0 to 100, read-out: Plant response rating, Velvetleaf) of 100%, a pest or weed control at 125 g/ha ([11]; pre-emergence, Preemergence, scale 0 to 100 (0 no effect, 100 complete control), read-out: Plant response rating, Velvetleaf) of 80% and a pest or weed control at 500 g/ha ([11]; pre-emergence, Preemergence, scale 0 to 100 (0 no effect, 100 complete control), read-out: Velvetleaf plant response rating) of 100%. The plant injury at 1000 g/ha (rice (Oryza sativa)) was 60%, the pest or weed control at 1000 g/ha [12] was 90% and the pest or weed control at 1000 g/ha [13] was 40%. It also gave a pest or weed control at 1000 g/ha [14] of 70%.
